Assay results reported in publication PMC5733478, “A Non-imaging High Throughput Approach to Chemical Library Screening at the Unmodified Adenosine-A3 Receptor in Living Cells” (Frontiers in Pharmacology, 2017).
Counter-ions that a name gives are not always drawn.

These compounds were tested against T1, human A3AR (Homo sapiens, UniProt P0DMS8) (assay: LOPAC library primary screen: single concentration (10 μM) inhibition of 25 nM CA200645 binding, PHERAstar FS). Details: not given.
T1 construct: expressed in transfected cells
T1 sequence (P0DMS8 1-318): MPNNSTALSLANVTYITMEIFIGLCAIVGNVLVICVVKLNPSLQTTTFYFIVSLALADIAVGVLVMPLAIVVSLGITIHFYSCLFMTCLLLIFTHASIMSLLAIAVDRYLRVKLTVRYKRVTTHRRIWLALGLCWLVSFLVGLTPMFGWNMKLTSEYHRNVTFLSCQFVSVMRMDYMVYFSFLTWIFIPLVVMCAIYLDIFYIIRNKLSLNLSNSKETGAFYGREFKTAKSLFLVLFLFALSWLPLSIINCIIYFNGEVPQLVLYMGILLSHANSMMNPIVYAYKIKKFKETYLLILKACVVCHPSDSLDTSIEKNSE

Row | SMILES | % 25 nM CA200645 binding
1 | CCc1cc(Cl)c(O)c(C(=O)NC[C@@H]2CCCN2CC)c1OC.Cl [S-(-)-Eticlopride hydrochloride] | 96.8 ± 1.1%
2 | COc1ccc(CN(CCN(C)C)c2ccccn2)cc1 [Pyrilamine maleate] | 84.6 ± 34.1%
3 | NC(CCCCCP(=O)(O)O)C(=O)O (racemic) [(±)-2-Amino-7-phosphonoheptanoic acid] | 52.2 ± 10.8%
4 | NS(=O)(=O)c1cc2c(cc1Cl)NC(C1CC3C=CC1C3)NS2(=O)=O (stereo not drawn) [Cyclothiazide] | 93.2 ± 4.7%
5 | O=c1onc2cnc3ccccc3n12 [ODQ] | 93.0 ± 5.7%
6 | CNC(=O)c1cc2c(cn1)[nH]c1ccccc12 [N-Methyl-beta-carboline-3-carboxamide] | 84.9 ± 8.4%
7 | CCCC1O[C@@H]2C[C@H]3[C@@H]4CCC5=CC(=O)C=C[C@]5(C)[C@H]4[C@@H](O)C[C@]3(C)[C@]2(C(=O)CO)O1 (stereo partly drawn) [Budesonide] | 92.7 ± 8.6%
8 | COc1cc2c(cc1OC)C1CC(=O)C(CC(C)C)CN1CC2 (stereo not drawn) [Tetrabenazine] | 91.3 ± 18.4%
9 | Nc1nc2c(nc(Br)n2[C@@H]2O[C@@H]3COP(=O)([O-])O[C@H]3[C@H]2O)c(=O)[nH]1.[Na+] [8-Bromo-cGMP sodium] | 102.4 ± 7.4%
10 | C[N+](C)(C)CCCCCC[N+](C)(C)C [Hexamethonium bromide] | 99.4 ± 1.1%
11 | CC(C)NCC(O)c1cc(O)cc(O)c1.CC(C)NCC(O)c1cc(O)cc(O)c1.O=S(=O)(O)O (stereo not drawn) [Metaproterenol hemisulfate] | 102.0 ± 5.4%
12 | C=CCN1C[C@H](C)N([C@H](c2ccc(C(=O)N(CC)CC)cc2)c2cccc(OC)c2)C[C@H]1C [SNC80] | 94.8 ± 9.3%
13 | CCCCCCCC/C=C\CCCCCCCC(=O)NCCc1ccc(O)c(O)c1 [N-Oleoyldopamine] | 53.5 ± 8.3%
14 | CNCC(O)c1ccc(O)cc1 (racemic) [(±)-Synephrine] | 90.7 ± 28.9%
15 | CN(C)CCC=C1c2ccccc2CCc2ccccc21 [Amitriptyline hydrochloride] | 83.6 ± 19.8%
16 | O=c1[nH]c2ccccc2c2ccccc12 [6(5H)-Phenanthridinone] | 41.6 ± 14.1%
17 | c1ccc(C(NCc2cccnc2)(c2ccccc2)c2ccccc2)cc1 [UCL 2077] | 52.2 ± 5.4%
18 | O=C(N[C@@H](Cc1ccccc1)C(=O)CCl)OCc1ccccc1 [Z-L-Phe chloromethyl ketone] | 100.8 ± 7.1%
19 | O=C1NC(=O)C(c2ccccc2)(c2ccccc2)N1 [5,5-Diphenylhydantoin] | 95.9 ± 12.2%
20 | O=c1[nH]cc(F)c(=O)[nH]1 [5-Fluorouracil] | 98.8 ± 8.7%
21 | Clc1ccccc1C(c1ccccc1)(c1ccccc1)n1ccnc1 [Clotrimazole] | 74.0 ± 15.0%

Row | SMILES | % 25 nM CA200645 binding
22 | CN(N=O)c1ccc(O)c(O)c1 [Me-3,4-dephostatin] | 87.0 ± 11.0%
23 | OC[C@H]1O[C@@H](n2cnc3c(N[C@H]4CCC[C@@H]4O)ncnc32)[C@H](O)[C@@H]1O [GR 79236X] | 78.0 ± 19.3%
24 | COc1ccccc1N1CCN(CC(O)COc2cccc3ccccc23)CC1.Cl.Cl (stereo not drawn) [Naftopidil dihydrochloride] | 98.6 ± 14.2%
25 | Oc1c2ccccc2c2c3c(cccc13)N=N2 [SP600125] | 41.0 ± 10.4%
26 | NC[C@H](O)c1ccc(O)c(O)c1.O=C(O)C(O)C(O)C(=O)O [L(-)-Norepinephrine bitartrate] | 97.7 ± 6.2%
27 | O=c1cc(-c2ccc(O)cc2)oc2cc(O)cc(O)c12 [Apigenin] | 41.8 ± 13.4%
28 | CC(=O)NCCc1c[nH]c2ccc(O)cc12 [N-Acetyl-5-hydroxytryptamine] | 100.5 ± 7.6%
29 | NNc1nncc2ccccc12 [Hydralazine hydrochloride] | 100.6 ± 8.6%
30 | O=C(CCSCc1ccco1)NNC(=O)N1Cc2ccccc2Oc2ccc(Cl)cc21 [SC-51322] | 86.9 ± 5.7%
31 | CN1C(C(=O)Nc2ccccn2)=C(O)c2ccccc2S1(=O)=O [Piroxicam] | 101.0 ± 12.2%
32 | CNc1cc(NS(=O)(=O)c2ccc(N)cc2)nc(NC)n1.Cl.Cl [Ro 04-6790 dihydrochloride] | 82.1 ± 15.5%
33 | CC[C@]1(O)C[C@@H]2CN(CCc3c([nH]c4ccccc34)[C@@](C(=O)OC)(c3cc4c(cc3OC)N(C)[C@H]3[C@@](O)(C(=O)OC)[C@H](OC(C)=O)[C@]5(CC)C=CCN6CC[C@]43[C@@H]65)C2)C1.O=S(=O)(O)O [Vinblastine sulfate salt] | 98.2 ± 16.0%
34 | Cl.Cl.O=c1ccc2[nH]cc(C3=CCNCC3)c2[nH]1 [CP-93129 dihydrochloride hydrate] | 102.1 ± 6.9%
35 | COC1=C(OC)C(=O)c2ccccc2C1=O [2,3-Dimethoxy-1,4-naphthoquinone] | 99.3 ± 8.8%
36 | CC(=O)OCC1=C(C(=O)[O-])N2C(=O)[C@@H](NC(=O)CCC[C@@H](N)C(=O)[O-])[C@H]2SC1.[Zn+2] [Cephalosporin C zinc salt] | 86.9 ± 28.2%
37 | COc1ccc([C@@H]2Sc3ccccc3N(CCN(C)C)C(=O)[C@@H]2OC(C)=O)cc1 [Diltiazem hydrochloride] | 97.4 ± 8.9%
38 | CN1CCN(C2=Nc3ccccc3Oc3ccc(Cl)cc32)CC1 [Loxapine succinate] | 80.2 ± 12.7%
39 | Cl.Cn1c(CCCC(=O)O)nc2cc(N(CCCl)CCCl)ccc21 [Bendamustine hydrochloride] | 97.6 ± 4.1%
40 | N.N.[Cl][Pt][Cl] [Cisplatin] | 69.0 ± 8.2%
41 | Cc1ncsc1CCCl.Cl [Chlormethiazole hydrochloride] | 84.7 ± 21.7%
42 | CNCCC=C1c2ccccc2CCc2ccccc21 [Nortriptyline hydrochloride] | 106.1 ± 17.3%

Row | SMILES | % 25 nM CA200645 binding
43 | O=[N+]([O-])c1cccc2c(Br)n[nH]c12 [3-Bromo-7-nitroindazole] | 81.2 ± 6.7%
44 | CC(=O)[C@]1(O)Cc2c(O)c3c(c(O)c2[C@@H](O[C@H]2C[C@H](N)[C@H](O)[C@H](C)O2)C1)C(=O)c1ccccc1C3=O [Idarubicin] | 95.1 ± 1.7%
45 | C[N+]1(C)CCc2cc3c(cc2[C@H]1[C@@H]1OC(=O)c2c1ccc1c2OCO1)OCO3.[Br-] [(-)-Bicuculline methbromide, 1(S), 9(R)] | 67.4 ± 5.9%
46 | Cl.NC1(C(=O)O)CC1 | 88.3 ± 14.5%
47 | NC(=O)NO [Hydroxyurea] | 107.6 ± 23.3%
48 | N#Cc1cc2nc([O-])c([O-])nc2cc1[N+](=O)[O-].[Na+].[Na+] [CNQX disodium] | 94.7 ± 15.8%
49 | CN(C)CCCN1c2ccccc2CCc2ccccc21 [Imipramine hydrochloride] | 99.2 ± 4.6%
50 | CNCCNS(=O)(=O)c1cccc2cnccc12.Cl.Cl [H-8 dihydrochloride] | 106.4 ± 6.7%
51 | O=c1[nH]c2cc(C(F)(F)F)ccc2n1-c1cc(C(F)(F)F)ccc1O [NS-1619] | 94.9 ± 11.8%
52 | CC1=C(/C=C/C(C)=C/C=C/C(C)=C/C=C/C=C(C)/C=C/C=C(C)/C=C/C2=C(C)C(=O)[C@@H](O)CC2(C)C)C(C)(C)C[C@H](O)C1=O [Astaxanthin] | 96.8 ± 4.6%
53 | C#CCn1c(=O)c2c(ncn2C)n(C)c1=O [3,7-Dimethyl-1-propargylxanthine] | 94.8 ± 1.8%
54 | CNc1ncnc2c1ncn2[C@@H]1O[C@H](CO)[C@@H](O)[C@H]1O [N6-Methyladenosine] | 61.1 ± 11.7%
55 | C[N+](C)(C)CCCCCCCCCC[N+](C)(C)C.[Br-].[Br-] [Decamethonium dibromide] | 106.4 ± 21.3%
56 | CC[C@H]1CN2CCc3cc(OC)c(OC)cc3[C@@H]2C[C@@H]1C[C@H]1NCCc2cc(OC)c(OC)cc21 [Emetine dihydrochloride hydrate] | 102.7 ± 9.1%
57 | COc1ccccc1N1CCN(CCN(C(=O)c2ccc(F)cc2)c2ccccn2)CC1.Cl.Cl [p-MPPF dihydrochloride] | 117.8 ± 19.4%
58 | N#CC(C#N)=C(N)/C(C#N)=C/c1ccc(O)cc1 [Tyrphostin AG 112] | 102.8 ± 4.7%
59 | Cc1nc2c(OCc3ccccc3)cccn2c1CC#N [SCH-28080] | 97.5 ± 14.8%
60 | CC(=O)O[C@H]1C[C@@]2(C)[C@@H](C[C@@H](O)[C@H]3[C@@]4(C)CC[C@@H](O)[C@@H](C)[C@@H]4CC[C@@]32C)/C1=C(\CCC=C(C)C)C(=O)[O-].[Na+] [Fusidic acid sodium] | 93.0 ± 9.1%
61 | C[C@@H](N)Cc1cnc[nH]1.Cl.Cl | 98.7 ± 8.4%

Same assay, conditions: % of control wells (1% DMSO and 25 nM CA200645); compounds at 10 µM; whole live cells expressing A3AR; mean ± SD, three experiments in duplicate

Row | SMILES | % 25 nM CA200645 binding
62 | NCCSSCCN [Cystamine dihydrochloride] | 96.6 ± 12.8%

Same assay, conditions: % of control wells (1% DMSO and 25 nM CA200645); compounds at 10 µM; whole live cells expressing the A3AR; mean ± SD, three experiments in duplicate

Row | SMILES | % 25 nM CA200645 binding
63 | NC(=O)CC[C@H](N)C(=O)O [L-Glutamine] | 99.9 ± 14.1%
64 | CCCCNc1c(C(=O)OCC)c(C)nc2c1cnn2CC [Tracazolate] | 98.9 ± 4.3%
65 | COc1cc2c(cc1OC)-c1c/c(=N\c3c(C)cc(C)cc3C)n(C)c(=O)n1CC2 [Trequinsin hydrochloride] | 88.3 ± 40.0%

Same assay, conditions: compounds tested at 10 µM; % of control wells (1% DMSO and 25 nM CA200645); whole live cells expressing the A3AR; mean ± SD, three experiments in duplicate

Row | SMILES | % 25 nM CA200645 binding
66 | CC1(C)CCC(NC(=O)[C@@H](N)CCC(=O)O)CC1 [CR 2249] | 109.1 ± 19.6%
